Experimental findings from patent US20230012368A1 (Hoffmann-La Roche Inc., priority 2018, published 2023) are described below.

A word on the IC90: it is the concentration needed for an effect of 90%.

The test system of this experiment is Acinetobacter baumannii ATCC 17978. In words: Antimicrobial susceptibility testing: 90% growth inhibitory concentration (IC90) determination. Type of experiment: cell-based. To be noted: 90% growth inhibitory concentration, Acinetobacter baumannii ATCC17978, Iso-Sensitest broth, OD 600 nm over 16h, read-out: ATCC17978 IC90. A digest of the protocol: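 Growth of the Acinetobacter baumannii strain was followed by optical density at 600 nm every 20 minutes for 16h at 35±2° C. Inoculum was ~5×10^(5) CFU/ml in Iso-Sensitest medium, with twofold compound dilutions (e.g. 50 to 0.097 μM final). The 90% inhibitory concentration was derived in log-phase growth.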

Where [1] appears, read: Acinetobacter baumannii, ATCC17978, 16 h.

Counter-ions that a name gives are not always drawn. Like-named read-outs stand apart in the source and are kept apart here.

Regarding `CCc1cc(Nc2nccn3c(-c4ccc(Cl)cc4Cl)cnc23)ccc1C(=O)NCCNC(=O)[C@@H](N)CCCNC(=N)N` [Example 346, N-[2-[[(2S)-2-amino-5-carbamimidamidopentanoyl]amino]ethyl]-4-[[3-(2,4-dichlorophenyl)imidazo[1,2-a]pyrazin-8-yl]amino]-2-ethylbenzamide;hydrochloride], under setting [1], the IC90 was 0.98 µM.

With `CCc1cc(Nc2nccn3c(-c4ccc(OC)c(F)c4F)cnc23)ccc1C(=O)NCCCNC(=O)[C@@H](N)CCCNC(=N)N` [Example 343, N-[3-[[(2S)-2-amino-5-carbamimidamidopentanoyl]amino]propyl]-4-[[3-(2,3-difluoro-4-methoxyphenyl)imidazo[1,2-a]pyrazin-8-yl]amino]-2-ethylbenzamide;2,2,2-trifluoroacetic acid], the IC90 was 0.75 µM.

Consider `COc1ccc(-c2cnc3c(Nc4ccc(C(=O)N5CCN(C(=O)[C@@H]6C[C@@](C)(O)CN6)CC5)c(C)c4)nccn23)c(F)c1F` [Example 362, [4-[[3-(2,3-difluoro-4-methoxyphenyl)imidazo[1,2-a]pyrazin-8-yl]amino]-2-methylphenyl]-[4-[(2S,4R)-4-hydroxy-4-methylpyrrolidine-2-carbonyl]piperazin-1-yl]methanone], for which the IC90 under setting [1] stood at 0.08 µM.

On to `Cc1cc(Nc2nccn3c(-c4ccc(Cl)cc4)cnc23)ccc1C(=O)NCCCN` [Example 236, N-(3-aminopropyl)-4-[[3-(4-chlorophenyl)imidazo[1,2-a]pyrazin-8-yl]amino]-2-methylbenzamide; hydrochloride], for which the IC90 was found to be 1.4 µM.

Consider `Cc1cc(Nc2nccn3c(-c4ccc(OC(F)F)cc4)cnc23)ccc1C(=O)NCCN1CCNCC1` [Example 46], for which the IC90 under setting [1] was 0.49 µM.

`Cc1cc(Nc2nccn3c(-c4ccc(OCC#N)c(F)c4F)cnc23)ccc1C(=O)NCCNC(=O)[C@@H]1C[C@@H](O)CN1` [Example 365, (2S,4R)-N-[2-[[4-[[3-[4-(cyanomethoxy)-2,3-difluorophenyl]imidazo[1,2-a]pyrazin-8-yl]amino]-2-methylbenzoyl]amino]ethyl]-4-hydroxypyrrolidine-2-carboxamide]: under setting [1], the 90% effect concentration (IC90) amounted to 0.09 µM.

As to `COc1ccc(-c2cnc3c(Nc4ccc(C(=O)NCCCCCCCN)c(Cl)c4)nccn23)c(F)c1F` [Example 518, N-(7-aminoheptyl)-2-chloro-4-((3-(2,3-difluoro-4-methoxyphenyl)imidazo[1,2-a]pyrazin-8-yl)amino)benzamide hydrochloride], the IC90 under setting [1] came out at 0.171 µM.

Regarding `CCc1cc(Nc2nccn3c(-c4ccc(Oc5ccncn5)c(F)c4F)cnc23)ccc1C(=O)NCCNC(=O)[C@H](N)CCNC(=N)N` [Example 441, N-[2-[[(2R)-2-amino-4-guanidino-butanoyl]amino]ethyl]-4-[[3-(2,3-difluoro-4-pyrimidin-4-yloxy-phenyl)imidazo[1,2-a]pyrazin-8-yl]amino]-2-ethyl-benzamide; formic acid], under setting [1], the IC90 was found to be 0.46 µM.

Turning to `COc1ccc(-c2cnc3c(Nc4ccc(C(=O)NCCN5CCNCC5)cc4)nccn23)cc1Cl` [Example 30, 4-((3-(3-chloro-4-methoxyphenyl)imidazo [1,2-a]pyrazin-8-yl)amino)-N-(2-(piperazin-1-yl)ethyl)benzamide hydrochloride], the IC90 under setting [1] worked out at 3.7 µM.

Take `CCc1cc(Nc2nccn3c(-c4ccc(Oc5ccc(F)cn5)c(F)c4F)cnc23)ccc1C(=O)NCCNC(=O)CCN` [Example 425, N-[2-(3-aminopropanoylamino)ethyl]-4-[[3-[2,3-difluoro-4-[(5-fluoro-2-pyridyl)oxy]phenyl]imidazo [1,2-a]pyrazin-8-yl]amino]-2-ethyl-benzamide; formic acid]: under setting [1], the IC90 was determined as 0.6 µM.

For `CCc1cc(Nc2nccn3c(-c4ccc(OC)cc4F)cnc23)ccc1C(=O)NCCCN` [Example 280, N-(3-aminopropyl)-2-ethyl-4-[[3-(2-fluoro-4-methoxyphenyl)imidazo[1,2-a]pyrazin-8-yl]amino]benzamide;hydrochlo-ride], the IC90 under setting [1] was 0.88 µM.

As to `COc1ccc(-c2cnc3c(Nc4ccc(C(=O)NCCNC(=O)N5CCN[C@H](C(=O)O)C5)c(C)c4)nccn23)c(F)c1F` [Example 348, (2S)-4-[2-[[4-[[3-(2,3-difluoro-4-methoxyphenyl)imidazo[1,2-a]pyrazin-8-yl]amino]-2-methylbenzoyl]amino]ethyl-carbamoyl]piperazine-2-carboxylic acid;formic acid], the IC90 under setting [1] amounted to 1.1 µM.

Regarding `CCc1cc(Nc2nccn3c(-c4ccc(Oc5nccs5)c(F)c4F)cnc23)ccc1C(=O)NCCCN` [Example 482, #N!-(3-aminopropyl)-4-[[3-[2,3-difluoro-4-(1,3-thiazol-2-yloxy)phenyl]imidazo[1,2-a]pyrazin-8-yl]amino]-2-ethylbenzamide], under setting [1], the IC90 turned out to be 0.88 µM.

As to `CCc1cc(Nc2nccn3c(-c4ccc(Oc5ccncn5)c(F)c4F)cnc23)ccc1C(=O)NCCCNC(=O)CCCNCCCN` [Example 563, N-[3-[4-(3-aminopropylamino)butanoyl-amino]propyl]-4-[[3-(2,3-difluoro-4-pyrimidin-4-yloxy-phenyl)imidazo[1,2-a]pyrazin-8-yl]amino]-2-ethyl-benzamide; formic acid], the IC90 under setting [1] was found to be 0.19 µM.

Consider `COc1ccc(-c2cnc3c(Nc4ccc(C(=O)N(C)Cc5ccncn5)c(C)c4)nccn23)cc1F` [Example 39, 4-[[3-(3-fluoro-4-methoxy-phenyl)imidazo[1,2-a]pyrazin-8-yl]amino]-N,2-dimethyl-N-(pyrimidin-4-ylmethyl)benzamide], for which, under setting [1], the IC90 turned out to be 0.24 µM.

As to `Cc1cc(Nc2nccn3c(-c4ccc(OC(F)F)cc4)cnc23)ccc1C(=O)N[C@@H](C)CN` [Example 269, N-[(2S)-1-aminopropan-2-yl]-4-[[3-[4-(difluoromethoxy)phenyl]im-idazo[1,2-a]pyrazin-8-yl]amino]-2-methylbenzamide;hydrochlo-ride], under setting [1], the IC90 was 7.1 µM.

Take `CCc1cc(Nc2nccn3c(-c4ccc(OC)c(F)c4F)cnc23)ccc1C(=O)NCC(C)CNC(=O)[C@@H](N)CNC(=N)N` (mixture of isomers) [Example 408, rac-N-(3-((R)-2-amino-3-guanidinopropanamido)-2-methylpropyl)-4-((3-(2,3-difluoro-4-methoxyphenyl)imidazo[1,2-a]pyrazin-8-yl)amino)-2-ethylbenzamide diformate]: under setting [1], the IC90 amounted to 0.41 µM.

Turning to `CCN(C(=O)NCCCN(C)C)C(=O)c1ccc(Nc2nccn3c(-c4ccc(OCC#N)c(F)c4F)cnc23)cc1Cl` [REF 149, 2-chloro-4-[[3-[4-(cyanomethoxy)-2,3-difluoro-phenyl]imidazo[1,2-a]pyrazin-8-yl]amino]-N-[3-(dimethylamino)propylcarbamoyl]-N-ethyl-benzamide], the IC90 under setting [1] was 0.45 µM.

As to `CCc1cc(Nc2nccn3c(-c4ccc(Cl)c(F)c4F)cnc23)ccc1C(=O)N(C)CCCN` [Example 282, N-(3-aminopropyl)-4-[[3-(4-chloro-2,3-difluorophenyl)imidazo[1,2-a]pyrazin-8-yl]amino]-2-ethyl-N-methylbenzamide; hydrochloride], the IC90 stood at 1.4 µM.

With `CCc1cc(Nc2nccn3c(-c4ccc(Oc5ncccn5)c(F)c4F)cnc23)ccc1C(=O)NCC1CCN(CC2CCNC2)CC1` (centres unmarked) [Example 549, 4-((3-(2,3-difluoro-4-(pyrimidin-2-yloxy)phenyl)imidazo[1,2-a]pyrazin-8-yl)amino)-2-ethyl-N-((1-(pyrrolidin-3-ylmethyl)piperidin-4-yl)methyl)benzamide formate], the IC90 under setting [1] came out at 0.49 µM.
